Reference: patent publication US20060052751A1, “Fast perfusion cell chamber” (priority 2004, published 2006)

System: GABA transporter isoform GAT4
Assay: GABA concentration jump, two-electrode voltage clamp in Xenopus laevis oocyte in fast perfusion chamber
Assay type: cell-based
Settings: oocyte expressing GAT4, N=6
Text: The usefulness of the Xenopus oocyte expression system for a variety of electrogenic membrane proteins has driven us to invent a novel rapid perfusion method which allows fast (≦20 ms) solution changes around intact, voltage-clamped Xenopus laevis oocytes (FIGS. 1-4). The present invention permits rapid solution changes to be made about voltage-clamped Xenopus laevis oocytes, while preserving the integrity of the cellular membrane. Defolliculated oocytes (intact vitelline membrane) and conventional two-electrode voltage clamp are used. For fast perfusion, the oocyte is placed in-line with the flow of buffer. The oocyte is supported primarily by an oocyte support base (6) equipped with oocyte support prongs (12), which prevent cellular movement. The current and voltage electrodes (4, 5) (for electrophysiological measurements) provide some support. Buffer flows from above the oocyte in a vertical direction (driven by gravity), at adjustable rates ranging from 1-50 ml/min. Healthy oocytes withstand maximal flow rates due to the chamber's support mechanisms.
In the absence of oocyte in the chamber, the fluid exchange rate at the recording electrodes is ≈3 ms at maximal buffer flow rates (FIG. 5), the fastest solution change rate ever reported for Xenopus laevis oocytes. The exchange rate with oocyte in place is more difficult to determine due to the highly invaginated surface of the cell (i.e., microvilli), but is estimated to be no more than ≈20 ms. The geometry of the oocyte, microvilli in the oocyte plasma membrane, as well as the oocyte vitelline membrane most likely contribute to this slowing effect. […] A number of features of the system have been examined with oocytes expressing the human γ-aminobutyric acid transporter protein and compared with results obtained from traditional methods (FIGS. 6 and 7). This system permits examination of ligand interaction with electrogenic membrane proteins, a proposition which has heretofore been unattainable. The system also allows for rapid determination of kinetic parameters for drugs of interest.
FIGS. 6A and 6B show a representative γ-aminobutyric acid (GABA) concentration jump in an oocyte expressing the GABA transporter isoform GAT4. The membrane potential (Vm) was held at −50 mV and the GABA concentration was 0.5 mM. […] This rapid transient induced by a concentration jump represents the fastest ever reported with the two-electrode voltage clamp for any membrane protein expressed in the Xenopus laevis oocyte expression system. […] The steady-state current represents steady-state Na^+/Cl^−/GABA cotransport into the cell. Only the steady-state current is observed in conventional two-electrode voltage clamp records (not shown). The rapid transient represents fast GABA-evoked electrogenic transitions. […] Referring to FIG. 6B, if GABA and Na^+ are simultaneously introduced, the rapid transient phase is absent and the evoked current follows a monoexponential behavior (τ=602±98 ms; N=6). […] Because these events are very fast events, these measurements would not have been possible without the present invention. Thus, our perfusion chamber allows the acquisition of novel information from electrogenic membrane transport proteins expressed in oocytes.

NCCCC(=O)O [GABA, γ-aminobutyric acid]
time constant (τ) of monoexponential evoked current (GABA and Na+ simultaneously introduced, rapid transient phase absent): 602 ± 98 ms | time constant of decay of rapid transient phase of GABA-evoked current (Vm -50 mV, GABA 0.5 mM): 15 ± 2 ms | time constant of mono-exponential decay of GABA-evoked current back to baseline upon rapid removal of GABA (Vm -50 mV, GABA 0.5 mM): 4.0 ± 0.6 s | time constant of mono-exponential decay of slow transient phase to steady-state (Vm -50 mV, GABA 0.5 mM): 1.3 ± 0.1 s | time-to-peak of rapid transient phase of GABA-evoked inward current (Vm -50 mV, GABA 0.5 mM): 20 ± 5 ms
